Experimental data as given in US20250382344A1, “Soluble GLP1/GIP/NPY2 Receptor Triple Agonists” (Boehringer Ingelheim International GmH, priority 2024, published 2025).

How the values were obtained:
[1] = Solubility in 0.1 M phosphate buffer at pH 7; assay type: physicochemical; details: 0.1 M phosphate buffer at pH 7, 10 mg/mL final peptide concentration, shaking 2 hours at room temperature, peptides as TFA-salts, measured sample pH 6.5-7.0; for solubility: read-out: Solubility
[2] = Mouse PK after intravenous application; assay type: in vivo; details: plasma, male NMRI mice, intravenous 30-60 nmol/kg, non-compartmental analysis
Protocol: Pharmacokinetic parameters of the peptides were determined after intravenous application to NMRI mice (Naval Medical Research Institute mice). Male NMRI mice were obtained from Janvier Laboratories (France) weighing 30 g to 40 g. Mice were housed in standard cages with a 12:12 hours light:dark cycle and standard food and water access ad libitum. Each test peptide was dissolved in 50 mM phosphate buffer (pH 7.4)/3.5% mannitol. Intravenous application of 30-60 nmol/kg was performed via the tail vein. Serial blood samples from conscious mice were collected from the saphenous vein in EDTA-containing vials at different time points up to 56 hours post-dosing. Subsequently, plasma was prepared by centrifugation for 5 minutes at approximately 5000 rpm and stored at −20° C. until quantification of the peptide plasma levels by liquid chromatography mass spectrometry (LC-MS). Individual plasma concentration-time profiles were analysed by a non-compartmental approach and the resulting pharmacokinetic parameters were calculated.

hGLP1R = biological target: T1, hGLP1R (Homo sapiens, UniProt P43220); assay: hGLP1R CreLuc assay in 0.5% and 100% plasma (HEK-293 CRE-luciferase reporter cells); assay type: cell-based; details: 0.5% human plasma, HEK-293 reporter cells, read-out: hGLP1R 0.5% hP
T1 construct: expressed in transfected cells; host or cells: HEK-293 CRE-luciferase reporter cells

hGIPR = biological target: T2, hGIPR (Homo sapiens, UniProt P48546); assay: hGIPR CreLuc assay in 0.5% and 100% plasma (CHO CRE-luciferase reporter cells); assay type: cell-based; details: 0.5% human plasma, read-out: hGIPR 0.5% hP
T2 construct: expressed in transfected cells; host or cells: CHO CRE-luciferase reporter cells
T2 sequence (P48546 22-466): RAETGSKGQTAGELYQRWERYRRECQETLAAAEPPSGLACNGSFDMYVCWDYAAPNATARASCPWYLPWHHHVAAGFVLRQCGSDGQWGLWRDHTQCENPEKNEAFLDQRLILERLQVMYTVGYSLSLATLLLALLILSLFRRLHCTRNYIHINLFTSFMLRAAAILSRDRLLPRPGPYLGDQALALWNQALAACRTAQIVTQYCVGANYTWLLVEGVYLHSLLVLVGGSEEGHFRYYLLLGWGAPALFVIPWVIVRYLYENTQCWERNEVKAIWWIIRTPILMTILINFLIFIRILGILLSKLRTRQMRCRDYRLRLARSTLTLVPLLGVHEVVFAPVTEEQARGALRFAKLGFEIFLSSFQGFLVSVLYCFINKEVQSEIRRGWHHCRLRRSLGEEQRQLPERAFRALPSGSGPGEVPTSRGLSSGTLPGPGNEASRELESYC

hNPY2R = biological target: T3, hNPY2R (Homo sapiens, UniProt P49146); assay: hNPY2R CreLuc assay in 0.5% and 100% plasma (HEK-293 CRE-luciferase reporter cells); assay type: cell-based; details: 0.5% human plasma, HEK-293 reporter cells, read-out: hNPY2R 0.5% hP
T3 construct: expressed in transfected cells; host or cells: HEK-293 CRE-luciferase reporter cells
T3 sequence (P49146 1-381): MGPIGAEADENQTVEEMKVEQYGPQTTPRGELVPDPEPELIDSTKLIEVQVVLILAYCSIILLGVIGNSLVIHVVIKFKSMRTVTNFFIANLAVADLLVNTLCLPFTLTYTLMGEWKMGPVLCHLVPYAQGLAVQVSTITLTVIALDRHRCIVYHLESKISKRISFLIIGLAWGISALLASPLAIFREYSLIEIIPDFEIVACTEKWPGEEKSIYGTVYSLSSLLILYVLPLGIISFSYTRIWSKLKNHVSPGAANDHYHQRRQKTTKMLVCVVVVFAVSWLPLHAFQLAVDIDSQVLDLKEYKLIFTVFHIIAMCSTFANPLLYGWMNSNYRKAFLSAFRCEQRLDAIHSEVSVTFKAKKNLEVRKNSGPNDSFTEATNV

T1 sequence (P43220 24-463): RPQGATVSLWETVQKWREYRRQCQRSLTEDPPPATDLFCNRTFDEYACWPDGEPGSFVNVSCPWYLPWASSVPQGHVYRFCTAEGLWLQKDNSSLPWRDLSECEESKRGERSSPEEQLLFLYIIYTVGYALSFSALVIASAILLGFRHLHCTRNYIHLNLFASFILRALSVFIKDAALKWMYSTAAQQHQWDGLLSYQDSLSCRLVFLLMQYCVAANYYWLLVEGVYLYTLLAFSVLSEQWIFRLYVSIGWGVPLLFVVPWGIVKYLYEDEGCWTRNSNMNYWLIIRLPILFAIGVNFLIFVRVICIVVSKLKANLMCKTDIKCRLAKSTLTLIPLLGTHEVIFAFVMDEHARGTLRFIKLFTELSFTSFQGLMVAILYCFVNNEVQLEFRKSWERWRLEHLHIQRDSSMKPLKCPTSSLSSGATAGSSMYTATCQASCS

| solubility [1] [µg/mL] | MRT [2] [h] | EC50 (hGLP1R) [nM] | EC50 (hGIPR) [nM] | EC50 (hNPY2R) [nM] | solubility at 2 h [1] [µg/mL] | SMILES |
| --- | --- | --- | --- | --- | --- | --- |
| 4200 | 7 |  |  |  |  | CC[C@H](C)[C@H](NC(=O)[C@H](CC(C)C)NC(=O)[C@H](Cc1c[nH]cn1)NC(=O)[C@H](CCCNC(=N)N)NC(=O)[C@@H](NC(=O)[C@H](Cc1ccccc1)NC(=O)[C@H](CCC(=O)O)NC(=O)C(C)(C)NC(=O)[C@H](CCC(N)=O)NC(=O)[C@H](C)NC(=O)[C@H](CCC(N)=O)NC(=O)[C@H](CCCCN)NC(=O)[C@H](CCC(=O)O)NC(=O)[C@H](CC(C)C)NC(=O)C(C)(C)NC(=O)[C@@H](NC(=O)[C@H](CO)NC(=O)[C@H](Cc1ccc(O)cc1)NC(=O)[C@H](CC(=O)O)NC(=O)[C@H](CO)NC(=O)[C@@H](NC(=O)[C@H](Cc1ccccc1)NC(=O)[C@@H](NC(=O)CNC(=O)[C@H](CCC(=O)O)NC(=O)C(C)(C)NC(=O)[C@@H](N)Cc1ccc(O)cc1)[C@@H](C)O)[C@@H](C)O)[C@@H](C)CC)C(C)C)C(=O)N[C@@H](CC(N)=O)C(=O)N[C@@H](CCCCNC(=O)CC[C@H](NC(=O)CC[C@H](NC(=O)CC[C@H](NC(=O)CC[C@H](NC(=O)CCCCCCCCCCCCCCCCC(=O)O)C(=O)O)C(=O)O)C(=O)O)C(=O)O)C(=O)NC(C)(C)C(=O)N[C@H](C(=O)N[C@@H](CCCNC(=N)N)C(=O)N[C@@H](CCC(N)=O)C(=O)N[C@@H](CCCNC(=N)N)C(=O)N[C@@H](Cc1ccc(O)cc1)C(N)=O)[C@@H](C)O [Compound 79, Y-Aib-E-G-T-F-T-S-D-Y-S-I-Aib-L-E-K-Q-A-Q-Aib-E-F-V-R-H-L-I-N-K(1,3)-Aib-T-R-Q-R-Y-NH2.C18DA-gGlu-gGlu-gGlu-gGlu(1,2)] |
| 4700 | 7.5 |  |  |  |  | CC[C@H](C)[C@H](NC(=O)[C@H](CC(C)C)NC(=O)[C@H](Cc1c[nH]cn1)NC(=O)[C@H](CCCNC(=N)N)NC(=O)[C@@H](NC(=O)[C@H](Cc1ccccc1)NC(=O)[C@H](C)NC(=O)C(C)(C)NC(=O)[C@H](CCC(N)=O)NC(=O)[C@H](C)NC(=O)[C@H](CCC(N)=O)NC(=O)[C@H](CCCCN)NC(=O)[C@H](CCC(=O)O)NC(=O)[C@H](CC(C)C)NC(=O)C(C)(C)NC(=O)[C@@H](NC(=O)[C@H](CO)NC(=O)[C@H](Cc1ccc(O)cc1)NC(=O)[C@H](CC(=O)O)NC(=O)[C@H](CO)NC(=O)[C@@H](NC(=O)[C@H](Cc1ccccc1)NC(=O)[C@@H](NC(=O)CNC(=O)[C@H](CCC(=O)O)NC(=O)C(C)(C)NC(=O)[C@@H](N)Cc1ccc(O)cc1)[C@@H](C)O)[C@@H](C)O)[C@@H](C)CC)C(C)C)C(=O)N[C@@H](CC(N)=O)C(=O)N[C@@H](CCCCNC(=O)CCCCCNC(=O)CC[C@H](NC(=O)CC[C@H](NC(=O)CC[C@H](NC(=O)CC[C@H](NC(=O)CC[C@H](NC(=O)CC[C@H](NC(=O)CCCCCCCCCCCCCCCCC(=O)O)C(=O)O)C(=O)O)C(=O)O)C(=O)O)C(=O)O)C(=O)O)C(=O)NC(C)(C)C(=O)N[C@H](C(=O)N[C@@H](CCCNC(=N)N)C(=O)N[C@@H](CCC(N)=O)C(=O)N[C@@H](CCCNC(=N)N)C(=O)N[C@@H](Cc1ccc(O)cc1)C(N)=O)[C@@H](C)O [Compound 9, Y-Aib-E-G-T-F-T-S-D-Y-S-I-Aib-L-E-K-Q-A-Q-Aib-A-F-V-R-H-L-I-N-K(1,3)-Aib-T-R-Q-R-Y-NH2.C18DA-gGlu-gGlu-gGlu-gGlu-gGlu-gGlu-AHX(1,2)] |
| 8600 | 16.4 |  |  |  |  | CC[C@H](C)[C@H](NC(=O)[C@H](CC(C)C)NC(=O)[C@H](Cc1c[nH]cn1)NC(=O)[C@H](CCCNC(=N)N)NC(=O)[C@@H](NC(=O)[C@H](Cc1ccccc1)NC(=O)[C@H](C)NC(=O)C(C)(C)NC(=O)[C@H](CCC(N)=O)NC(=O)[C@H](C)NC(=O)[C@H](CCC(N)=O)NC(=O)[C@H](CCCCN)NC(=O)[C@H](CC(=O)O)NC(=O)[C@H](CC(C)C)NC(=O)C(C)(C)NC(=O)[C@@H](NC(=O)[C@H](CO)NC(=O)[C@H](Cc1ccc(O)cc1)NC(=O)[C@H](CC(=O)O)NC(=O)[C@H](CO)NC(=O)[C@@H](NC(=O)[C@H](Cc1ccccc1)NC(=O)[C@@H](NC(=O)CNC(=O)[C@H](CCC(=O)O)NC(=O)C(C)(C)NC(=O)[C@@H](N)Cc1ccc(O)cc1)[C@@H](C)O)[C@@H](C)O)[C@@H](C)CC)C(C)C)C(=O)N[C@@H](CC(N)=O)C(=O)N[C@@H](CCCCNC(=O)[C@@H](N)CCCCNC(=O)CC[C@H](NC(=O)[C@H](CCC(=O)O)NC(=O)CC[C@H](NC(=O)CC[C@H](NC(=O)CC[C@H](NC(=O)CC[C@H](NC(=O)CCCCCCCCCCCCCCCCCCC(=O)O)C(=O)O)C(=O)O)C(=O)O)C(=O)O)C(=O)O)C(=O)NC(C)(C)C(=O)N[C@H](C(=O)N[C@@H](CCCNC(=N)N)C(=O)N[C@@H](CCC(N)=O)C(=O)N[C@@H](CCCNC(=N)N)C(=O)N[C@@H](Cc1ccc(O)cc1)C(N)=O)[C@@H](C)O [Compound 74, Y-Aib-E-G-T-F-T-S-D-Y-S-I-Aib-L-D-K-Q-A-Q-Aib-A-F-V-R-H-L-I-N-K(1,3)-Aib-T-R-Q-R-Y-NH2.C20DA-gGlu-gGlu-gGlu-gGlu-gGlu-gGlu-eLys(1,2)] |
|  |  | 1 | 0.2 | 13.3 | 10000 | CC[C@H](C)[C@H](NC(=O)[C@H](CC(C)C)NC(=O)[C@H](Cc1c[nH]cn1)NC(=O)[C@H](CCCNC(=N)N)NC(=O)[C@@H](NC(=O)[C@H](Cc1ccccc1)NC(=O)[C@H](C)NC(=O)C(C)(C)NC(=O)[C@H](CCC(N)=O)NC(=O)[C@H](C)NC(=O)[C@H](CCC(N)=O)NC(=O)[C@H](CCCCN)NC(=O)[C@H](CCC(=O)O)NC(=O)[C@H](CC(C)C)NC(=O)C(C)(C)NC(=O)[C@@H](NC(=O)[C@H](CO)NC(=O)[C@H](Cc1ccc(O)cc1)NC(=O)[C@H](CC(=O)O)NC(=O)[C@H](CO)NC(=O)[C@@H](NC(=O)[C@H](Cc1ccccc1)NC(=O)[C@@H](NC(=O)CNC(=O)[C@H](CCC(=O)O)NC(=O)C(C)(C)NC(=O)[C@@H](N)Cc1ccc(O)cc1)[C@@H](C)O)[C@@H](C)O)[C@@H](C)CC)C(C)C)C(=O)N[C@@H](CC(N)=O)C(=O)N[C@@H](CCCCNC(=O)CCCCCNC(=O)CC[C@H](NC(=O)CC[C@H](NC(=O)CC[C@H](NC(=O)CC[C@H](NC(=O)CC[C@H](NC(=O)CCCCCCCCCCCCCCCCCCC(=O)O)C(=O)O)C(=O)O)C(=O)O)C(=O)O)C(=O)O)C(=O)NC(C)(C)C(=O)N[C@H](C(=O)N[C@@H](CCCNC(=N)N)C(=O)N[C@@H](CCC(N)=O)C(=O)N[C@@H](CCCNC(=N)N)C(=O)N[C@@H](Cc1ccc(O)cc1)C(N)=O)[C@@H](C)O [Compound 167, Y-Aib-E-G-T-F-T-S-D-Y-S-I-Aib-L-E-K-Q-A-Q-Aib-A-F-V-R-H-L-I-N-K(1,3)-Aib-T-R-Q-R-Y-NH2.C20DA-gGlu-gGlu-gGlu-gGlu-gGlu-AHX(1,2)] |
